The results in this text go back to US12606528B2, “Methods and materials for inhibiting NF-kB activity” (University of Pittsburgh - Of the Commonwealth System of …, priority 2019, dated 2026).

Like-named read-outs stand apart in the source and are kept apart here.

A word on the IC50: it is the concentration needed to halve the response being measured.

The test system of one assay is NF-κB. Nature of the assay: NF-κB assay: THP1-NF-κB-LUC cells, LPS-stimulated secreted luciferase. To be noted: THP1-NF-κB-LUC cells, read-out: IC50 (NF-κB assay). It is filed as cell-based. The essentials:
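THP1-NF-κB-LUC cells (25k/well) were pretreated with compounds for 2 h, then stimulated with LPS (10 ng/mL) for 18 h. Secreted luciferase was measured and normalized to vehicle, and IC50 was fitted from the concentration series.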

The next assay relates to TNF release. Briefly: TNF assay: TNF release from LPS-stimulated human PBMCs (TNF ELISA). In kind it is cell-based. To be noted: PBMC, read-out: IC50 (TNF assay). As for the experimental part: 25k THP1-NF-κB-LUC cells were dispensed into 384 well plate (per well). Cells were treated with compounds with various concentrations for 2 hours before addition of LPS (10 ng/mL) for 18 hours. Secreted luciferase activity were measured using quant-luc reagents (1 bag of luc reagent dilute to 40 mL, use 10 μL per well). Data were normalized to vehicle control and graphed. Compound IC50 towards inhibiting NF-κB were determined through Prism. Similarly, 10k human PBMCs cells were cultured in 384 well plate (per well). Cells were treated with compounds with various concentrations for 2 hours before addition of LPS (10 ng/ml) for 18 hours, and supernatants were collected and assayed for TNF ELISA. Compound IC50 towards inhibiting TNF release were determined through Prism. • Activity: “+”>10 μM, “++”>1 μM and <10 μM, “+++”>0.1 μM and <1 μM, “++++”<0.1 μM.

[1] abbreviates: LPS-stimulated human PBMCs, TNF ELISA.
[2] abbreviates: compounds 2 hours before LPS (10 ng/mL) for 18 hours, secreted luciferase.
Setting [3] is: human PBMCs, compounds 2 hours before LPS (10 ng/ml) for 18 hours, supernatant TNF ELISA.

Consider `CNC(=O)c1ccc2nc(-c3ccc(F)cc3)c(-c3cccs3)nc2c1` [BC19188], for which the 50% inhibitory concentration (IC50) is 0.1 to 1 µM in the assay on NF-κB (LPS-stimulated) and more than 10 µM in the assay on TNF release (setting [1]).
For `C#CCNC(=O)c1ccc2nc(-c3ccc(F)cc3)c(-c3cccs3)nc2c1` [BC19189] the same measures were 0.1 to 1 µM and more than 10 µM.
Regarding `Cc1nc(-c2ccc3nc(-c4ccc(F)cc4)c(-c4ccc(F)cc4)nc3c2)no1` [BC19190], the concentration for half-maximal inhibition (IC50) was 0.1 to 1 µM in the assay with NF-κB (LPS-stimulated) and more than 10 µM in the assay on TNF release (setting [1]).
Consider `CN1CCN(C(=O)c2ccc3nc(-c4cccs4)cnc3c2)CC1` [BC19191], for which the IC50 in the assay on NF-κB (LPS-stimulated) and in the assay with TNF release (setting [1]) was more than 10 µM in each case.
In the case of `N#Cc1ccc2nc(-c3ccc(F)cc3)c(-c3ccc(F)cc3)nc2c1` [BC19192], the results for the 50% inhibitory concentration (IC50) with NF-κB (LPS-stimulated) and in the assay on TNF release (setting [1]) were 0.1 to 1 µM and more than 10 µM, respectively.
The matching figures for `Cc1noc(-c2ccc3nc(-c4ccc(F)cc4)c(-c4ccc(F)cc4)nc3c2)n1` [BC19193]: 0.1 to 1 µM and more than 10 µM.
The matching figures for `N=C(NO)c1ccc2nc(-c3ccc(F)cc3)c(-c3ccc(F)cc3)nc2c1` [BC19194]: less than 0.1 µM and more than 10 µM.
For the molecule `CC(C)OC(=O)Nc1ccc2nc(-c3ccc(F)cc3)c(-c3ccc(F)cc3)nc2c1` [BC19195], the IC50 is 1 to 10 µM with NF-κB (LPS-stimulated) and more than 10 µM in the assay with TNF release (setting [1]).
`O=c1c(S(=O)(=O)c2ccc(F)c(F)c2)c[nH]c2c(Cl)ccc(F)c12` [BC19196]: the IC50 in the assay on NF-κB (setting [2]) is 0.1 to 1 µM; in the assay with TNF release (setting [3]) it was more than 10 µM.
The matching figures for `Cc1ccc(F)c2c(=O)c(S(=O)(=O)c3ccc(F)c(F)c3)c[nH]c12` [BC19197]: 0.1 to 1 µM and more than 10 µM.
Consider `Cc1ccc(C)c2c(=O)c(S(=O)(=O)c3ccc(F)c(F)c3)c[nH]c12` [BC19198], for which the 50% inhibitory concentration (IC50) is 1 to 10 µM with NF-κB (setting [2]) and more than 10 µM in the assay on TNF release (setting [3]).
For `COc1ccc(Cl)c2c(=O)c(S(=O)(=O)c3ccc(F)c(F)c3)c[nH]c12` [BC19199] the same measures were 0.1 to 1 µM and more than 10 µM.
The matching figures for `COc1ccc(C)c2c(=O)c(S(=O)(=O)c3ccc(F)c(F)c3)c[nH]c12` [BC19200]: 1 to 10 µM and more than 10 µM.
In the case of `O=c1c(S(=O)(=O)c2ccc(F)c(F)c2)c[nH]c2ccncc12` [BC19201], the IC50 with NF-κB (setting [2]) and in the assay on TNF release (setting [3]) was more than 10 µM each time.
On to `COc1ccc2[nH]cc(S(=O)(=O)c3ccc(F)cc3)c(=O)c2n1` [BC19202], for which the concentration for half-maximal inhibition (IC50) in the assay on NF-κB (setting [2]) and in the assay with TNF release (setting [3]) was more than 10 µM in each case.
`O=S(=O)(c1ccccc1)c1cnn(-c2ccccc2)c1` [BC19204]: the concentration for half-maximal inhibition (IC50) with NF-κB (LPS-stimulated) and with TNF release (setting [1]) was more than 10 µM each time.
Turning to `O=S(=O)(c1ccccc1)c1ccn(-c2ccccc2)n1` [BC19205], the IC50 was 1 to 10 µM with NF-κB (LPS-stimulated) and more than 10 µM in the assay with TNF release (setting [1]).
Take `CC1Oc2cc(S(=O)(=O)Nc3ccccc3)c(Cl)cc2NC1=O` (stereo not shown) [BC19206]: the half-maximal inhibitory concentration (IC50) in the assay with NF-κB (setting [2]) was 1 to 10 µM; in the assay with TNF release (setting [3]), more than 10 µM.
Consider `CC(C)NS(=O)(=O)c1cc2c(cc1Cl)NC(=O)C(C)O2` (stereo not shown) [BC19207], for which the 50% inhibitory concentration (IC50) in the assay on NF-κB (setting [2]) and in the assay on TNF release (setting [3]) was more than 10 µM in each case.
Take `CC1Oc2cc(S(=O)(=O)N3CCCC3)c(Cl)cc2NC1=O` (stereo not shown) [BC19208]: the IC50 in the assay with NF-κB (setting [2]) and with TNF release (setting [3]) was more than 10 µM in each case.
As for `CCNS(=O)(=O)c1cc2c(cc1Cl)NC(=O)C(C)O2` (stereo not shown) [BC19209], the results for the concentration for half-maximal inhibition (IC50) with NF-κB (setting [2]) and in the assay with TNF release (setting [3]) were 1 to 10 µM and more than 10 µM, respectively.
The matching figures for `CCC1Oc2cc(S(=O)(=O)Nc3ccc(C(C)C)cc3)c(Cl)cc2NC1=O` (stereo not shown) [BC19210]: less than 0.1 µM and more than 10 µM.
Consider `CCC1Oc2cc(S(=O)(=O)Nc3ccc(OC)cc3)c(Cl)cc2NC1=O` (stereo not shown) [BC19211], for which the IC50 with NF-κB (setting [2]) is 0.1 to 1 µM; in the assay on TNF release (setting [3]), more than 10 µM.
`CCC1Oc2cc(S(=O)(=O)Nc3ccc(C)c(F)c3)c(Cl)cc2NC1=O` (stereo not shown) [BC19212]: the IC50 in the assay with NF-κB (setting [2]) is less than 0.1 µM; in the assay on TNF release (setting [3]), more than 10 µM.
The matching figures for `CCC1Oc2cc(S(=O)(=O)Nc3cccc(SC)c3)c(Cl)cc2NC1=O` (stereo not shown) [BC19213]: 0.1 to 1 µM and more than 10 µM.
For `CCCNS(=O)(=O)c1cc2c(cc1Cl)NC(=O)C(CC)O2` (stereo not shown) [BC19214], the 50% inhibitory concentration (IC50) in the assay with NF-κB (setting [2]) and with TNF release (setting [3]) was more than 10 µM each time.
`CCC1Oc2cc(S(=O)(=O)Nc3cc(Cl)ccc3C)c(Cl)cc2NC1=O` (stereo not shown) [BC19215]: the half-maximal inhibitory concentration (IC50) with NF-κB (setting [2]) was 1 to 10 µM; with TNF release (setting [3]), more than 10 µM.
Regarding `CCc1ccc(NS(=O)(=O)c2cc3c(cc2Br)NC(=O)C(C)O3)cc1` (stereo not shown) [BC19216], the IC50 in the assay with NF-κB (setting [2]) is less than 0.1 µM; with TNF release (setting [3]), more than 10 µM.
The matching figures for `CC1Oc2cc(S(=O)(=O)N3CCOCC3)c(Br)cc2NC1=O` (stereo not shown) [BC19217]: more than 10 µM and more than 10 µM.
The matching figures for `CC(C)CNS(=O)(=O)c1cc2c(cc1Br)NC(=O)C(C)O2` (stereo not shown) [BC19218]: more than 10 µM and more than 10 µM.
For `CC1Oc2cc(S(=O)(=O)N3CCN(C)CC3)c(Br)cc2NC1=O` (stereo not shown) [BC19219], the half-inhibitory concentration (IC50) in the assay on NF-κB (setting [2]) and in the assay on TNF release (setting [3]) was more than 10 µM throughout.
For the molecule `CCC1Oc2cc(S(=O)(=O)Nc3cccc(F)c3)c(Br)cc2NC1=O` (stereo not shown) [BC19220], the IC50 is 0.1 to 1 µM with NF-κB (setting [2]) and more than 10 µM in the assay with TNF release (setting [3]).
For `CCC1Oc2cc(S(=O)(=O)Nc3cccc(Cl)c3)c(Br)cc2NC1=O` (stereo not shown) [BC19221] the same measures were 0.1 to 1 µM and more than 10 µM.
As to `CCCNS(=O)(=O)c1cc2c(cc1Br)NC(=O)C(CC)O2` (stereo not shown) [BC19222], the IC50 with NF-κB (setting [2]) and with TNF release (setting [3]) was more than 10 µM throughout.
Regarding `CCC1Oc2cc(S(=O)(=O)NC3CCCCC3)c(Br)cc2NC1=O` (stereo not shown) [BC19223], the half-maximal inhibitory concentration (IC50) in the assay on NF-κB (setting [2]) and in the assay with TNF release (setting [3]) was more than 10 µM each time.
As for `CCC1Oc2cc(S(=O)(=O)Nc3ccc(C)cc3)c(Br)cc2NC1=O` (stereo not shown) [BC19224], the 50% inhibitory concentration (IC50) in the assay with NF-κB (setting [2]) is 0.1 to 1 µM; with TNF release (setting [3]) it was more than 10 µM.
With `Cc1ccc(NS(=O)(=O)c2cc(Br)cc3c2OC(C)C(=O)N3)cc1Cl` (stereo not shown) [BC19225], the half-maximal inhibitory concentration (IC50) in the assay with NF-κB (setting [2]) was 0.1 to 1 µM; with TNF release (setting [3]) it was more than 10 µM.
As to `CC1Oc2c(cc(Br)cc2S(=O)(=O)N2CCOCC2)NC1=O` (stereo not shown) [BC19226], the concentration for half-maximal inhibition (IC50) in the assay on NF-κB (setting [2]) was 1 to 10 µM; with TNF release (setting [3]), more than 10 µM.
The matching figures for `CC(C)CNS(=O)(=O)c1cc(Br)cc2c1OC(C)C(=O)N2` (stereo not shown) [BC19227]: more than 10 µM and more than 10 µM.
For `CC1Oc2c(cc(Br)cc2S(=O)(=O)N2CCN(C)CC2)NC1=O` (stereo not shown) [BC19228] the same measures were more than 10 µM and more than 10 µM.
As to `CCCNS(=O)(=O)c1cc(Br)cc2c1OC(CC)C(=O)N2` (stereo not shown) [BC19229], the IC50 is 1 to 10 µM with NF-κB (setting [2]) and more than 10 µM in the assay with TNF release (setting [3]).
The matching figures for `CCC1Oc2c(cc(Br)cc2S(=O)(=O)NCc2ccccc2)NC1=O` (stereo not shown) [BC19230]: less than 0.1 µM and more than 10 µM.
The matching figures for `CCC1Oc2c(cc(Br)cc2S(=O)(=O)Nc2cccc(F)c2)NC1=O` (stereo not shown) [BC19231]: less than 0.1 µM and more than 10 µM.
Turning to `CCC1Oc2c(cc(Br)cc2S(=O)(=O)Nc2cccc(Cl)c2)NC1=O` (stereo not shown) [BC19232], the IC50 in the assay with NF-κB (setting [2]) was less than 0.1 µM; in the assay on TNF release (setting [3]), more than 10 µM.
For `CCC1Oc2c(cc(Br)cc2S(=O)(=O)NC2CCCCC2)NC1=O` (stereo not shown) [BC19233] the same measures were 1 to 10 µM and 1 to 10 µM.
For `CCC1Oc2c(cc(Br)cc2S(=O)(=O)Nc2ccc(C)cc2)NC1=O` (stereo not shown) [BC19234] the same measures were less than 0.1 µM and 1 to 10 µM.
`CC1Nc2cc(S(=O)(=O)N3CCCC3)ccc2NC1=O` (stereo not shown) [BC19235]: the IC50 in the assay on NF-κB (LPS-stimulated) and in the assay on TNF release (setting [1]) was more than 10 µM in each case.
